The target of one experiment is FGFR4 kinase (Homo sapiens, UniProt P22455). Nature of the experiment: Inhibition of FGFR4 kinase activity (ULight-labeled JAK-1 peptide, EU665/EU615 reading). To be noted: FGFR4 kinase 3.85 nM, ATP 100 μM, enzymatic reaction 2 hours. Type of experiment: biochemical. The method, then: (§1) Assay of activity of small molecule compounds on inhibiting FGFR4 kinase and FGFR4 V550L mutant kinase. The assay method was as follows:
(§2) 1) Dilution of Compounds:
(§3) In a 96-well plate a, the compounds were serially diluted 3-fold with DMSO to form 11 concentrations, and the 12th concentration was pure DMSO (as a positive control); In a new 96-well plate b, the above solutions were diluted 25-fold with ultrapure water (DMSO concentration was 4%).
(§4) 2) Transferring Compounds to a 384-Well Plate:
(§5) The above solutions of compounds diluted with ultrapure water in the 96-well plate b were pipetted into corresponding wells of a 384-well plate.
(§6) 3) Adding 4× kinase solution: 2.5 μl of the above 4× kinase solutions were pipetted with a multi-channel pipette into corresponding reaction wells of the 384-well plate, and the mixture was mixed well and pre-reacted at room temperature for 5 minutes.
(§7) 4) Adding 2× substrate/ATP mixture: 5 μl of the above 2× substrate/ATP mixtures were pipetted with a multi-channel pipette into corresponding reaction wells of the 384-well plate.
(§8) 5) Negative control: negative control wells were set up in the 384-well plate by adding 2.5 μl of 4× substrate, 2.5 μl of 4× enzyme solution, 2.5 μl of 1× kinase Assay Buffer and 2.5 μl of ultrapure water containing 4% DMSO to each well.
(§9) 6) Centrifuging, mixing well, and reacting at room temperature in the dark for 2 hours.
(§10) 7) Terminating the Enzymatic Reaction:
(§11) 5 μl of the above 4× stop solutions were pipetted into corresponding wells of the 384-well plate, and the mixture was centrifuged, mixed well, and then reacted at room temperature for 5 minutes.
(§12) 8) Development of the Reaction:
(§13) 5 μl of the above 4× detection solutions were pipetted into corresponding wells of the 384-well plate, and the mixture was centrifuged, mixed well, and then reacted at room temperature for 1 hour.
(§14) 9) The 384-well plate was placed into a plate reader, and the signal was detected using the appropriate program.
(§15) 10) Analysis of IC50: Reading of well=10000*EU665 value/EU615 value Inhibition rate=(reading of positive control well−reading of assay well)/(reading of positive control well−reading of negative control well)*100%
(§16) The corresponding IC50 can be calculated by inputting the drug concentrations and corresponding inhibition rates into GraphPad Prism 5 and processing.
Assay Conditions for Screening FGFR4 Kinase Activity Inhibitory Molecule:
The final concentration of FGFR4 kinase in the reaction system was 3.85 nM, the final concentration of ATP was 100 μM, the final concentration of substrate ULight™-labeled JAK-1 (Tyr1023) Peptide was 100 nM, and the time for enzymatic reaction was 2 hours.
The highest final concentration of the compound in the reaction system was 2.5 μM. After serial 3-fold dilution, there were 11 concentrations in total, and the lowest final concentration was 0.042 nM. The final concentration of DMSO was 1%.

A further experiment addresses FGFR4 V550L kinase (Homo sapiens, UniProt P22455, V550L). Kind of experiment: Inhibition of FGFR4 V550L mutant kinase activity (ULight-labeled PolyGT, EU665/EU615 reading). Format: biochemical. The settings on record: FGFR4 V550L kinase 1 nM, ATP 10 μM, enzymatic reaction 2 hours. The method, then: as §1, §2, §3, §4, §5, §6, §7, §8, §9, §10, §11, §12, §13, §14, §15, §16
Assay Conditions for Screening FGFR4 V550L Kinase Activity Inhibitory Molecule:
The final concentration of FGFR4 V550L kinase in the reaction system was 1 nM, the final concentration of ATP was 10 μM, the final concentration of substrate ULight™-labeled PolyGT was 100 nM, and the time for enzymatic reaction was 2 hours.
The highest final concentration of the compound in the reaction system was 2.5 μM. After seral 3-fold dilution, there were 11 concentrations in total, and the lowest final concentration was 0.042 nM. The final concentration of DMSO was 1%.

The next experiment has as its target T1, Ba/F3 ETV6-FGFR4 cells (Homo sapiens, UniProt P22455).
T1 construct: fused on or other part: N-terminal part of ETV6 (TEL), the oligomerising partner that makes the FGFR4 kinase constitutively active; P41212 (Transcription factor ETV6)
Kind of experiment: Inhibition of cell proliferation (CCK-8), Ba/F3 ETV6-FGFR4 cells. Type of experiment: cell-based. To be noted: 72 hours of incubation, read-out: Ba/F3 ETV6-FGFR4 IC50. The method, then:
(§17) Compounds were assayed for inhibiting cell proliferation, and the specific method was as follows: • 1. Cells were cultured to a logarithmic growth phase, pipetted evenly, transferred to a 15 mL centrifuge tube, and centrifuged at 1000 rpm at room temperature for 4 minutes; • 2. The supernatant was discarded; 5 mL of complete medium was added and pipetted evenly; 10 μL of cell suspension was weighed, mixed well with 10 μL of 0.4% trypan blue, and counted under a cell counter; the proportion of living cells was ensured to be above 90%; • 3. The cell suspension was seeded into a 96-well plate (80 μL of cell suspension per well) according to the conditions shown in Table 5; in the outer 36 wells of the 96-well plate, no cells were added but only sterile water was added; only the inner 60 wells were used for cell assay and control; • 4. 5× compound dilution: the compounds were serially diluted 4-fold to give a total of 9 concentrations; 80-fold overall dilution was completed with complete medium, the resulting concentration was 5 times the final drug concentration, and DMSO concentration was 1.25%; • 5. 20 μL of the corresponding compounds with different concentrations were added to each well of assay wells of the 96-well plate; 20 μL of complete medium was added to positive and negative control wells and shaken well; and the final concentration of DMSO in each well was 0.25%; • 6. After 72 hours of incubation, 10 μL of CCK-8 reagent was added to each well and further incubated at 37° C. for 1-2 hours; and the OD value was read at 450 nm; 7. Cell survival rate (%)=[(As−Ab)/(Ac−Ab)]*100% • As: Assay well (medium containing cells, CCK-8, compound) • Ac: Control well (medium containing cells, CCK-8) • Ab: Blank well (medium without cell and compound, CCK-8) • 8. The values were imported into Graphpad Prism 5 software for IC50 calculation.

Experiment [1] concerns the target T2, Ba/F3 ETV6-FGFR4-V550L cells (Homo sapiens, UniProt P22455, V550L, cells depend on it).
T2 construct: fused on or other part: N-terminal part of ETV6 (TEL), the oligomerising partner of the fusion; already named as the first entry; P41212 (Transcription factor ETV6)
Nature of the experiment: Inhibition of cell proliferation (CCK-8), Ba/F3 ETV6-FGFR4-V550L cells. Format: cell-based. The settings on record: 72 hours of incubation, read-out: Ba/F3 ETV6-FGFR4-V550L IC50. The method, then:
as §17

Chain of FGFR4 V550L kinase (P22455 22-802 V550L): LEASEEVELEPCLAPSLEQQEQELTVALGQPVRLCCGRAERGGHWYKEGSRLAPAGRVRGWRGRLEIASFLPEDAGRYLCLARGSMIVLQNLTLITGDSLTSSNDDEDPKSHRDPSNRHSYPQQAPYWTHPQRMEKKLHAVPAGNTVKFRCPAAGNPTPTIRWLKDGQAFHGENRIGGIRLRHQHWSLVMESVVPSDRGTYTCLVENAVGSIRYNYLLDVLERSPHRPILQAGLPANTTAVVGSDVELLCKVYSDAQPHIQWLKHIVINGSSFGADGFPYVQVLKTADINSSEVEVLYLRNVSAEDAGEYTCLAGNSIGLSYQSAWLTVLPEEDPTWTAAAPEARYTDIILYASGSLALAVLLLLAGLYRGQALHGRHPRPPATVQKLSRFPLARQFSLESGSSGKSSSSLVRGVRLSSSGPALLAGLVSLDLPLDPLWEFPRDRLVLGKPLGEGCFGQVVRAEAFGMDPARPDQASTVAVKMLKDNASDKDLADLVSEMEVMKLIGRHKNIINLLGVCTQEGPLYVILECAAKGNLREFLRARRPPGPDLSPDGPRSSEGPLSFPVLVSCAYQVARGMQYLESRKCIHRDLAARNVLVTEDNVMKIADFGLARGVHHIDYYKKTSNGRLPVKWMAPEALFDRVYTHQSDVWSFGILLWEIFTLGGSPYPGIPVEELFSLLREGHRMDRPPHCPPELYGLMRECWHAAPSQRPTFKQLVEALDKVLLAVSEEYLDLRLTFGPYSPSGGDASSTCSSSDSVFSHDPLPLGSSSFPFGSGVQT
T2 sequence (P22455 whole entry V550L, the tested form may be a part): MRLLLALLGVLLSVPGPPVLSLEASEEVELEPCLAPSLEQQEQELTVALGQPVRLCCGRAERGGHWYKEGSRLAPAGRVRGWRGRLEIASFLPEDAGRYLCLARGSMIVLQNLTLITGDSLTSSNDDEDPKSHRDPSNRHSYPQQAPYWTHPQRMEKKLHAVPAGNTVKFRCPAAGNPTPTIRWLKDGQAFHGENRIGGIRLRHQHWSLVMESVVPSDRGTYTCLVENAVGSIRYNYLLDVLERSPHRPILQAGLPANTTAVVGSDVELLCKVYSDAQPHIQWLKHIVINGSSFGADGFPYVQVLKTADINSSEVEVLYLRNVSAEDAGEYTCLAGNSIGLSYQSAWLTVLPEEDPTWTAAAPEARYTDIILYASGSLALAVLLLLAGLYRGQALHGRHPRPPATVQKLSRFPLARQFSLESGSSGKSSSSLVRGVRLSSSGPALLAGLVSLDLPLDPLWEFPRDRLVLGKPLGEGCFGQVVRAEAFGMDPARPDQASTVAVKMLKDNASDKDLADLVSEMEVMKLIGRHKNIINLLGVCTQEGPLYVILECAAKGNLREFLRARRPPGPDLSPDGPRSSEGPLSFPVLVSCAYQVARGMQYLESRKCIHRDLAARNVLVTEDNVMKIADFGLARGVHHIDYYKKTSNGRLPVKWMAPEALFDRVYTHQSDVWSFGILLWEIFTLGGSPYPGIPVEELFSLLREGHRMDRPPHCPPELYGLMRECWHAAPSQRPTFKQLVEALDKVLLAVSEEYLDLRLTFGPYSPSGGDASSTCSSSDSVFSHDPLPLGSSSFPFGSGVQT
T1 sequence (P22455 whole entry, change not shown, the tested form may be a part): as the sequence (P22455 whole entry V550L, the tested form may be a part) above, with L550V counted along it
Chain of FGFR4 kinase (P22455 22-802): as the sequence (P22455 22-802 V550L) above, with L529V counted along it

As a reminder, the IC50 is the concentration that gives 50% inhibition. In the case of `C=CC(=O)Nc1cc(N2CCN(CC)CC2)ccc1Nc1ncc(C#N)c(Nc2cc(C)ccc2OC(C)C)n1` [Example 24, N-(2-((5-cyano-4-((2-isopropoxy-5-methylphenyl)amino)pyrimidin-2-yl)amino)-5-(4-ethylpiperazin-1-yl)phenyl) acrylamide], the IC50 on FGFR4 kinase and on FGFR4 V550L kinase was 10 to 50 nM throughout. The GI50 on Ba/F3 ETV6-FGFR4 cells was 10 to 50 nM; in experiment [1], at most 10 nM.
Consider `C=CC(=O)Nc1cc(N2CCN(CC)CC2)ccc1Nc1ncc(C#N)c(Nc2cc(C#N)ccc2OC(C)C)n1` [Example 25, N-(2-((5-cyano-4-((5-cyano-2-isopropoxyphenyl)amino)pyrimidin-2-yl)amino)-5-(4-ethylpiperazin-1-yl)phenyl) acrylamide], for which the results for the IC50 on FGFR4 kinase and against FGFR4 V550L kinase were 50 to 100 nM and 10 to 50 nM, respectively. For the same molecule, the GI50 (at Ba/F3 ETV6-FGFR4 cells; in experiment [1]) was 10 to 50 nM each time.
Consider `C=CC(=O)Nc1cc(N2CCN(CC)CC2)ccc1Nc1ncc(C#N)c(Nc2cc(C(F)(F)F)ccc2OC(C)C)n1` [Example 26, N-(2-((5-cyano-4-((2-isopropoxy-5-(trifluoromethyl)phenyl)amino)pyrimidin-2-yl)amino)-5-(4-ethylpiperazin-1-yl)phenyl) acrylamide], for which the IC50 on FGFR4 kinase and against FGFR4 V550L kinase was 100 to 1000 nM in each case. Moreover, the GI50 (at Ba/F3 ETV6-FGFR4 cells; in experiment [1]) was 100 to 1000 nM in each case.
As for `C=CC(=O)Nc1cc(N2CCN(CC)CC2)ccc1Nc1ncc(C#N)c(Nc2ccc(F)cc2OC(C)C)n1` [Example 27, N-(2-((5-cyano-4-((4-fluoro-2-isopropoxyphenyl)amino)pyrimidin-2-yl)amino)-5-(4-ethylpiperazin-1-yl)phenyl) acrylamide], the IC50 against FGFR4 kinase and at FGFR4 V550L kinase was at most 10 nM throughout. Moreover, the GI50 (at Ba/F3 ETV6-FGFR4 cells; in experiment [1]) was at most 10 nM in each case.
`C=CC(=O)Nc1cc(N2CCN(CC)CC2)ccc1Nc1ncc(C#N)c(Nc2ccc(O)cc2OC(C)C)n1` [Example 28, N-(2-((5-cyano-4-((4-hydroxy-2-isopropoxyphenyl)amino)pyrimidin-2-yl)amino)-5-(4-ethylpiperazin-1-yl)phenyl) acrylamide]: the IC50 at FGFR4 kinase and against FGFR4 V550L kinase was at most 10 nM each time. In addition, the GI50 at Ba/F3 ETV6-FGFR4 cells is 100 to 1000 nM; in experiment [1], 50 to 100 nM.
With `C=CC(=O)Nc1cc(N2CCN(CC)CC2)ccc1Nc1ncc(C#N)c(Nc2ccc(Cl)cc2OC(C)C)n1` [Example 29, N-(2-((4-((4-chloro-2-isopropoxyphenyl)amino)-5-cyanopyrimidin-2-yl)amino)-5-(4-ethylpiperazin-1-yl)phenyl) acrylamide], the IC50 on FGFR4 kinase and against FGFR4 V550L kinase was 10 to 50 nM throughout. Further, the GI50 (at Ba/F3 ETV6-FGFR4 cells; in experiment [1]) was at most 10 nM throughout.
Take `C=CC(=O)Nc1cc(N2CCN(CC)CC2)ccc1Nc1ncc(C#N)c(Nc2ccc(C)cc2OC(C)C)n1` [Example 30, N-(2-((5-cyano-4-((2-isopropoxy-4-methylphenyl)amino)pyrimidin-2-yl)amino)-5-(4-ethylpiperazin-1-yl)phenyl) acrylamide]: the 50% inhibitory concentration (IC50) was 10 to 50 nM on FGFR4 kinase and at most 10 nM against FGFR4 V550L kinase. The GI50 (on Ba/F3 ETV6-FGFR4 cells; in experiment [1]) was at most 10 nM in each case.
For the molecule `C=CC(=O)Nc1cc(N2CCN(CC)CC2)ccc1Nc1ncc(C#N)c(Nc2ccc(OC)cc2OC(C)C)n1` [Example 31, N-(2-((5-cyano-4-((2-isopropoxy-4-methoxyphenyl)amino)pyrimidin-2-yl)amino)-5-(4-ethylpiperazin-1-yl)phenyl) acrylamide], the IC50 is at most 10 nM against FGFR4 kinase and 10 to 50 nM at FGFR4 V550L kinase. Further, the GI50 (at Ba/F3 ETV6-FGFR4 cells; in experiment [1]) was at most 10 nM each time.
Consider `C=CC(=O)Nc1cc(N2CCN(CC)CC2)ccc1Nc1ncc(C#N)c(Nc2ccc(OCCOC)cc2OC(C)C)n1` [Example 33, N-(2-((5-cyano-4-((2-isopropoxy-4-(2-methoxyethoxy)phenyl)amino)pyrimidin-2-yl)amino)-5-(4-ethylpiperazin-1-yl)phenyl) acrylamide], for which the IC50 against FGFR4 kinase is at most 10 nM; against FGFR4 V550L kinase it was 10 to 50 nM. Besides, the GI50 (on Ba/F3 ETV6-FGFR4 cells; in experiment [1]) was at most 10 nM each time.
Take `C=CC(=O)Nc1cc(N2CCN(CC)CC2)ccc1Nc1ncc(C#N)c(Nc2ccc(C(F)(F)F)cc2OC(C)C)n1` [Example 34, N-(2-((5-cyano-4-((2-isopropoxy-4-(trifluoromethyl)phenyl)amino)pyrimidin-2-yl)amino)-5-(4-ethylpiperazin-1-yl)phenyl) acrylamide]: the IC50 against FGFR4 kinase was in the range of 50 to 100 nM; at FGFR4 V550L kinase, 10 to 50 nM. Moreover, the GI50 (at Ba/F3 ETV6-FGFR4 cells; in experiment [1]) was 10 to 50 nM each time.
Regarding `C=CC(=O)Nc1cc(N2CCN(CC)CC2)ccc1Nc1ncc(C#N)c(Nc2ccc(S(C)(=O)=O)cc2OC(C)C)n1` [Example 35, N-(2-((5-cyano-4-((2-isopropoxy-4-(methylsulfonyl)phenyl)amino)pyrimidin-2-yl)amino)-5-(4-ethylpiperazin-1-yl)phenyl) acrylamide], the IC50 against FGFR4 kinase and at FGFR4 V550L kinase was 10 to 50 nM throughout. Also, the GI50 (at Ba/F3 ETV6-FGFR4 cells; in experiment [1]) was 10 to 50 nM throughout.
As for `C=CC(=O)Nc1cc(N2CCN(CC)CC2)ccc1Nc1ncc(C#N)c(Nc2ccc(C3CC3)cc2OC(C)C)n1` [Example 36, N-(2-((5-cyano-4-((4-cyclopropyl-2-isopropoxyphenyl)amino)pyrimidin-2-yl)amino)-5-(4-ethylpiperazin-1-yl)phenyl) acrylamide], the IC50 against FGFR4 kinase and against FGFR4 V550L kinase was 10 to 50 nM in each case. Moreover, the GI50 (on Ba/F3 ETV6-FGFR4 cells; in experiment [1]) was 10 to 50 nM each time.
As for `C=CC(=O)Nc1cc(N2CCN(C(C)C)CC2)ccc1Nc1ncc(C#N)c(Nc2ccccc2OC(C)C)n1` [Example 37, N-(2-((5-cyano-4-((2-isopropoxyphenyl)amino)pyrimidin-2-yl)amino)-5-(4-isopropylpiperazin-1-yl)phenyl) acrylamide], the IC50 on FGFR4 kinase and on FGFR4 V550L kinase was at most 10 nM in each case. Further, the GI50 (at Ba/F3 ETV6-FGFR4 cells; in experiment [1]) was at most 10 nM each time.
